Reference: patent US20240190854A1, “PYRIMIDINE OR PYRIDINE DERIVATIVES USEFUL AS HCN2 MODULATORS” (King's College London, priority 2021, published 2024)
Counter-ions that a name gives are not always drawn.

Assays:
HCN2 = HCN2 (Homo sapiens (Human), UniProt Q9UL51); assay: HCN2 current assay using PatchXpress 7000A; type: cell-based; details: PatchXpress protocol; read-out: PX HCN2 IC50
Method: (§1) Example 126A, Using PatchXpress 7000A
(§2) Solutions for recording HCN currents were:
The membrane voltage was then stepped back to −30 mV for a further 8 seconds.
(§3) The peak inward current measured at the end of the pulse to −110 mV (HCN1 and HCN2) or −130 mV (HCN4) was measured and any leak current subtracted to calculate the HCN current. The HCN current amplitude was measured after each control or compound addition and normalized to the control amplitude (Control A).
(§4) All experiments were performed at room temperature (approximately 22° C.).
(§5) Each test compound concentration was applied to the cell for seven (7) minutes, at which point the next cumulative concentration was applied.

HCN4 = HCN4 (Homo sapiens (Human), UniProt Q9Y3Q4); assay: HCN4 current assay using PatchXpress 7000A; type: cell-based; details: PatchXpress protocol; read-out: PX HCN4 IC50
Method: as §1, §2, §3, §4, §5

Chain of HCN2 (Q9UL51 whole entry): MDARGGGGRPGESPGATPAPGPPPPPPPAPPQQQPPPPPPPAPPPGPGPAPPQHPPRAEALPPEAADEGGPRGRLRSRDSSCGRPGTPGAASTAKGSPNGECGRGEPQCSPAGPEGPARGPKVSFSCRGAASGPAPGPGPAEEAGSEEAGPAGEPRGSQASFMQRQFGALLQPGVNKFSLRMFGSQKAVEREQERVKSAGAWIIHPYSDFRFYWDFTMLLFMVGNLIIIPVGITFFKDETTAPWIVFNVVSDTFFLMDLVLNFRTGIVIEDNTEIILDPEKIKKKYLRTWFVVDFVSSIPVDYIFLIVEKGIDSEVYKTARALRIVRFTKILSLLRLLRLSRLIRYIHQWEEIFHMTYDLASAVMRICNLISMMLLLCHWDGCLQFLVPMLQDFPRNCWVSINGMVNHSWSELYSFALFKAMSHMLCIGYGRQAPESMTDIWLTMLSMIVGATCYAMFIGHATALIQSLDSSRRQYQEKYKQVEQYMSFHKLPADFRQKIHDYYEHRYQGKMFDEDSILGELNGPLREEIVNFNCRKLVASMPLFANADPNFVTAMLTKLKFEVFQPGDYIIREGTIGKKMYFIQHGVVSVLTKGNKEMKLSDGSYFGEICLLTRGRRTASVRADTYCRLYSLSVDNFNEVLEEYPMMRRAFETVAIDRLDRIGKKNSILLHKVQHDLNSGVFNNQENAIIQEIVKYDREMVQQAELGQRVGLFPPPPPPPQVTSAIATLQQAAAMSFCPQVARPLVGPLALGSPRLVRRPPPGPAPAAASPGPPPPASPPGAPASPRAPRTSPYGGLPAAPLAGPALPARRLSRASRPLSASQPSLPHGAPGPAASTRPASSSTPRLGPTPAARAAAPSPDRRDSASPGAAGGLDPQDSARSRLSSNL
Chain of HCN4 (Q9Y3Q4 whole entry, species assumed): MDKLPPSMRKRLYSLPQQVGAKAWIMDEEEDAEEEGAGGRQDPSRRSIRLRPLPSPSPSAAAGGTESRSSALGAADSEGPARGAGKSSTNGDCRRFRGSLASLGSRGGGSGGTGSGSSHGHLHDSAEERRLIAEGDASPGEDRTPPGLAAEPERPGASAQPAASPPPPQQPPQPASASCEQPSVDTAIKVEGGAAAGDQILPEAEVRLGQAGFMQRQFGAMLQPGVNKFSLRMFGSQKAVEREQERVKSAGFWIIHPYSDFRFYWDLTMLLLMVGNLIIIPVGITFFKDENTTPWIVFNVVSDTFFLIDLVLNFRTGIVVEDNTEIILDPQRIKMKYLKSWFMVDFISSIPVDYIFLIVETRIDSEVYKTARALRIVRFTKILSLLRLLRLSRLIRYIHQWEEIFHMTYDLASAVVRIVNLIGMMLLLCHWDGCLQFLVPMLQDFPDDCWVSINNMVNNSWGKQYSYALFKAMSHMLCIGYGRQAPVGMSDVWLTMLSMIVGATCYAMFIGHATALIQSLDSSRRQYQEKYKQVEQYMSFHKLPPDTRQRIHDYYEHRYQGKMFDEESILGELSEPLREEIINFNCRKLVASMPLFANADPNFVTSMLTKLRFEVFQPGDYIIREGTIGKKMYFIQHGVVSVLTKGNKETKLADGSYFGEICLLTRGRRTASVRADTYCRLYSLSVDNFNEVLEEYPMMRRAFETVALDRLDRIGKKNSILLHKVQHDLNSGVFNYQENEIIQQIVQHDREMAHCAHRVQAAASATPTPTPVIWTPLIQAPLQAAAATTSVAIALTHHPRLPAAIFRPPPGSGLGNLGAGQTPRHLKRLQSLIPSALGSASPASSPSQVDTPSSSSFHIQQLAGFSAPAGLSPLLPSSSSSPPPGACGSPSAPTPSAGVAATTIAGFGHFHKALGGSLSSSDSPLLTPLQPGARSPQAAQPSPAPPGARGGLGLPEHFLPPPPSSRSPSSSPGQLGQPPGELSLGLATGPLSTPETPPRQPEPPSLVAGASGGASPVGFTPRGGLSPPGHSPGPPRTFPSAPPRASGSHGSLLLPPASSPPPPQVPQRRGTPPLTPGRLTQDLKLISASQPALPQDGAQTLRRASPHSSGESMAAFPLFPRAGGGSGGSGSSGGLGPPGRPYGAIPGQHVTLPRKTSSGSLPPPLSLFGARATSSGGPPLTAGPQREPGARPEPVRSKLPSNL

| IC50 (HCN2) [µM] | IC50 (HCN4) [µM] | SMILES |
| --- | --- | --- |
| 17.4 |  | N[C@@H](Cc1ccccn1)c1cccc(Br)c1-c1noc2ccccc12 [Example 86, (S)-1-[2-(Benzo[d]isoxazol-3-yl)-3-bromophenyl]-2-(pyridine-2-yl)ethan-1-amine hydrochloride] |
| 1.2 | 4.7 | Cc1noc(C)c1-c1cccc(C[C@H](N)c2ccccc2-c2noc3ccccc23)n1 [Example 94, (S)-1-[2-(Benzo[d]isoxazol-3-yl)phenyl]-2-[6-(3,5-dimethylisoxazol-4-yl)pyridine-2-yl)-ethan-1-amine hydrochloride] |
| 1.9 |  | Cc1cc(C#N)cnc1C[C@H](N)c1ccccc1-c1noc2ccccc12 [Example 80, (S)-1-[2-(Benzo[d]isoxazol-3-yl)phenyl]-2-(3-methyl-5-cyanopyridin-2-yl)ethan-1-amine] |
| 1.6 |  | N#Cc1cccc(C[C@H](N)c2ccccc2-c2noc3cc(Br)ccc23)n1 [Example 120, (S)-{2-Amino-[2-(6-bromobenzo[d]isoxazol-3-yl)phenyl]ethyl}-6-cyanopyridine] |
| 3 | 22.4 | CS(=O)(=O)c1cccc(C[C@H](N)c2ccccc2-c2noc3ccccc23)n1 [Example 103, (S)-1-[2-(Benzo[d]isoxazol-3-yl)phenyl]-2-[6-(methylsulfonyl)pyridin-2-yl]ethan-1-amine] |
| 22.9 |  | N[C@@H](Cc1ccccn1)c1ccccc1-c1noc2ccc(Br)cc12 [Example 113, (S)-1-[2-(5-Bromobenzo[d]isoxazol-3-yl)phenyl]-2-(pyridine-2-yl)ethan-1-amine hydrochloride] |
| 13 |  | N[C@@H](Cc1ccccn1)c1ccc(Br)cc1-c1noc2ccccc12 [Example 85, (S)-1-[2-(Benzo[d]isoxazol-3-yl)-4-bromophenyl]-2-(pyridine-2-yl)ethan-1-amine] |
| 26.6 |  | COc1ccc(-c2noc3ccccc23)c([C@@H](N)Cc2ccccn2)c1 [Example 82, (S)-1-[2-(Benzo[d]isoxazol-3-yl)-5-methoxyphenyl]-2-(pyridine-2-yl)ethan-1-amine hydrochloride] |

Further lines, the compound ahead of its results:

| SMILES | IC50 (HCN2) [µM] | IC50 (HCN4) [µM] |
| --- | --- | --- |
| COCCN(C)c1cccc(C[C@H](N)c2ccccc2-c2noc3ccccc23)n1 [Example 51, (S)-6-{2-Amino-2-[2-(benzo[d]isoxazol-3-yl)phenyl]ethyl}-N-(2-methoxyethyl)-N-methyl pyridin-2-amine hydrochloride] | 1.7 | 3.4 |
| NC(=O)c1cccc(C[C@H](N)c2ccccc2-c2noc3ccccc23)n1 [Example 104, (S)-6-{2-Amino-2-[2-(benzo[d]isoxazol-3-yl)phenyl]ethyl}pyridine-2-carboxamide hydrochloride] | 2.6 | 10.4 |
| CN(CCO)c1cccc(C[C@H](N)c2ccccc2-c2noc3ccccc23)n1 [Example 55, (S)-2-[(6-{(S)-2-Amino-2-[2-(benzo[d]isoxazol-3-yl)phenyl]ethyl}pyridine-2-yl)(methyl)amino]ethan-1-ol hydrochloride] | 0.8 | 2 |
| CC(c1ccccn1)C(N)c1ccccc1-c1noc2ccccc12 (single isomer, unassigned; diastereomer 3) [Example 3, 1-[2-(Benzo[d]isoxazol-3-yl)phenyl]-2-(pyridin-2-yl)propan-1-amine hydrochloride (diastereomer 3)] | 2.3 | > 30 |
| N[C@@H](Cc1cccc(C(O)CO)n1)c1ccccc1-c1noc2ccccc12 (stereo partly drawn) [Example 41, 1-(6-{(S)-2-Amino-2-[2-(benzo[d]isoxazol-3-yl)phenyl]ethyl}pyridine-2-yl)ethan-1,2-diol hydrochloride] | 14.1 | > 30 |
| N[C@@H](Cc1ccccn1)c1ccccc1-c1noc2cc(C#CCO)ccc12 [Example 32, (S)-1-[2-(6-[3-Hydroxyprop-1-yn-1-yl]benzo[d]isoxazol-3-yl)phenyl]-2-(pyridine-2-yl)ethan-1-amine hydrochloride] | 8.5 |  |
| N[C@@H](Cc1cccc(N2CC[C@H](O)C2)n1)c1ccccc1-c1noc2ccccc12 [Example 53, (S)-1-(6-{(S)-2-Amino-2-[2-(benzo[d]isoxazol-3-yl)phenyl]ethyl}pyridine-2-yl)pyrrolidin-3-ol hydrochloride] | 6.2 |  |
| N[C@@H](Cc1ccccn1)c1ccccc1-c1noc2cccc(Br)c12 [Example 43, (S)-1-[2-(4-Bromobenzo[d]isoxazol-3-yl)phenyl]-2-(pyridine-2-yl)ethan-1-amine hydrochloride] | 16 |  |
| COc1cccc(C[C@H](N)c2ccccc2-c2noc3ccccc23)n1 [Example 115, (S)-1-[2-(Benzo[d]isoxazol-3-yl)phenyl]-2-(6-methoxypyridine-2-yl)ethan-1-amine hydrochloride] | 0.69 |  |
| CC(O)c1ccc2c(-c3ccccc3[C@@H](N)Cc3ccccn3)noc2c1 (stereo partly drawn) [Example 35, (S)-1-[2-(6-[1-Hydroxyethyl]benzo[d]isoxazol-3-yl)phenyl]-2-(pyridine-2-yl)ethan-1-amine] | 8.9 |  |
| CC(=O)Nc1cccnc1C[C@H](N)c1ccccc1-c1noc2ccccc12 [Example 76, (S)—N-(2-{2-Amino-2-[2-(benzo[d]isoxazol-3-yl)phenyl]ethyl}pyridin-3-yl)acetamide hydrochloride] | 8.7 |  |
| N[C@@H](Cc1ccccn1)c1ccccc1-c1noc2cc(C3CC3)ccc12 [Example 34, (S)-1-[2-(6-Cyclopropylbenzo[d]isoxazol-3-yl)phenyl]-2-(pyridine-2-yl)ethan-1-amine] | 16.7 |  |
| CS(=O)(=O)c1nc(C[C@H](N)c2ccccc2-c2noc3ccccc23)ccc1F [Example 7, (S)-1-[2-(Benzo[d]isoxazol-3-yl)phenyl]-2-(5-fluoro-6-methylsulfonylpyridine-2-yl)ethan-1-amine hydrochloride] | 5.7 |  |
| N[C@@H](Cc1ncccc1C1CC1)c1ccccc1-c1noc2ccccc12 [Example 79, (S)-1-[2-(Benzo[d]isoxazol-3-yl)phenyl]-2-(3-cyclopropylpyridin-2-yl)ethan-1-amine formate] | 4.9 |  |
| CC(c1ccccn1)C(N)c1ccccc1-c1noc2ccccc12 (single isomer, unassigned; diastereomer 1) [Example 1, 1-[2-(Benzo[d]isoxazol-3-yl)phenyl]-2-(pyridin-2-yl)propan-1-amine hydrochloride (diastereomer 1)] | 7.4 |  |
| Cc1ccc([C@@H](N)Cc2ccccn2)c(-c2noc3ccccc23)c1 [Example 38, (S)-1-[2-(Benzo[d]isoxazol-3-yl)-4-methylphenyl]-2-(pyridine-2-yl)ethan-1-amine hydrochloride] | 13 |  |
| CC[C@H](c1ccccn1)[C@H](N)c1ccccc1-c1noc2ccccc12 [Example 45, (1S,2S)-1-[2-(Benzo[d]isoxazol-3-yl)phenyl]-2-(pyridin-2-yl)butan-1-amine hydrochloride] | 22.1 |  |
| N#Cc1ccc(-c2noc3ccccc23)c([C@@H](N)Cc2ccccn2)c1 [Example 37, (S)-1-[2-(Benzo[d]isoxazol-3-yl)-5-cyanophenyl]-2-(pyridine-2-yl)ethan-1-amine hydrochloride] | 14 |  |
| Cc1ccc(C(=O)N(C)C)nc1C[C@H](N)c1ccccc1-c1noc2ccccc12 [Example 8, (S)-6-{2-Amino-2-[2-(benzo[d]isoxazol-3-yl)phenyl]ethyl}-N,N,5-trimethylpyridine-2-carboxamide] | 2.5 |  |
